In ChEMBL document CHEMBL3044795, “Synthesis and biological evaluation of novel benzoquinones as potential antimicrobial agents” (2013):
≈ marks a conversion by molar mass, not a printed value.

How the values were obtained:
Type in all cases: functional
Pseudomonas aeruginosa [1] = test: Ratio of Ampicillin MIC to compound MIC for Pseudomonas aeruginosa ATCC 10145
Staphylococcus aureus [2] = test: Antibacterial activity against Staphylococcus aureus DSM 1104 assessed as diamater of growth inhibition zone after 24 hr by agar cup diffusion method
Escherichia coli [3] = test: Antibacterial activity against Escherichia coli ATCC 11775 assessed as diamater of growth inhibition zone after 24 hr by agar cup diffusion method
Staphylococcus aureus [4] = test: Antibacterial activity against Staphylococcus aureus DSM 1104 assessed as growth inhibition after 24 hr; details: DSM 1104, 24 h
Bacillus subtilis [5] = test: Antibacterial activity against Bacillus subtilis ATCC 6633 assessed as growth inhibition after 24 hr; details: ATCC 6633, 24 h
Bacillus subtilis [6] = test: Antibacterial activity against Bacillus subtilis ATCC 6633 assessed as diamater of growth inhibition zone after 24 hr by agar cup diffusion method
Escherichia coli [7] = test: Antibacterial activity against Escherichia coli ATCC 11775 assessed as growth inhibition after 24 hr by two-fold serial dilution method; details: ATCC 11775, 24 h
Escherichia coli [8] = test: Ratio of compound MIC to Ampicillin MIC for Escherichia coli ATCC 11775
Pseudomonas aeruginosa [9] = test: Antibacterial activity against Pseudomonas aeruginosa ATCC 10145 assessed as diamater of growth inhibition zone after 24 hr by agar cup diffusion method
Bacillus subtilis [10] = test: Antibacterial activity against Bacillus subtilis ATCC 6633 assessed as growth inhibition after 24 hr by two fold serial dilution method; details: ATCC 6633, 24 h
Escherichia coli [11] = test: Antibacterial activity against Escherichia coli ATCC 11775 assessed as growth inhibition after 24 hr; details: ATCC 11775, 24 h
Pseudomonas aeruginosa [12] = test: Antibacterial activity against Pseudomonas aeruginosa ATCC 10145 assessed as growth inhibition after 24 hr by two-fold serial dilution method; details: ATCC 10145, 24 h
Candida albicans [13] = test: Antifungal activity against Candida albicans DSM 70014 assessed as diamater of growth inhibition zone after 48 hr by agar cup diffusion method
Pseudomonas aeruginosa [14] = test: Antibacterial activity against Pseudomonas aeruginosa ATCC 10145 assessed as growth inhibition after 24 hr; details: ATCC 10145, 24 h
Candida albicans [15] = test: Antifungal activity against Candida albicans DSM 70014 assessed as growth inhibition after 48 hr by two-fold serial dilution method; details: DSM 70014, 48 h
Staphylococcus aureus [16] = test: Antibacterial activity against Staphylococcus aureus DSM 1104 assessed as growth inhibition after 24 hr by two fold serial dilution method; details: DSM 1104, 24 h
Candida albicans [17] = test: Antifungal activity against Candida albicans DSM 70014 assessed as growth inhibition after 48 hr; details: DSM 70014, 48 h

MIC (Escherichia coli [7]) [µg/mL]	MIC (Bacillus subtilis [10]) [µg/mL]	MIC (Pseudomonas aeruginosa [12]) [µg/mL]	MIC (Candida albicans [15]) [µg/mL]	MIC (Staphylococcus aureus [16]) [µg/mL]	SMILES	Ratio (Pseudomonas aeruginosa [1])	diameter of the inhibition zone (DIZ) (Staphylococcus aureus [2]) [mm]	diameter of the inhibition zone (DIZ) (Escherichia coli [3]) [mm]	MBC (Staphylococcus aureus [4]) [µg/mL]	MBC (Bacillus subtilis [5]) [µg/mL]	diameter of the inhibition zone (DIZ) (Bacillus subtilis [6]) [mm]	Ratio (Escherichia coli [8])	diameter of the inhibition zone (DIZ) (Pseudomonas aeruginosa [9]) [mm]	MBC (Escherichia coli [11]) [µg/mL]	diameter of the inhibition zone (DIZ) (Candida albicans [13]) [mm]	MBC (Pseudomonas aeruginosa [14]) [µg/mL]	MFC (Candida albicans [17]) [µg/mL]
25 (≈ 58.2 µM)	50 (≈ 116 µM)	12.5 (≈ 29.1 µM)	50 (≈ 116 µM)	50 (≈ 116 µM)	COc1ccc(/C=N/N=c2\scc(C3=CC(=O)C=CC3=O)n2-c2ccc(C)cc2)cc1	4	16	16	50 (≈ 116 µM)	50 (≈ 116 µM)	14	2	15	50 (≈ 116 µM)	14	25 (≈ 58.2 µM)	50 (≈ 116 µM)
50 (≈ 115 µM)	12.5 (≈ 28.8 µM)	12.5 (≈ 28.8 µM)	100 (≈ 231 µM)	100 (≈ 231 µM)	COc1ccc(/C=N/N=c2\scc(-c3cc(O)ccc3O)n2-c2ccccc2)cc1O	4	16	24	100 (≈ 231 µM)	25 (≈ 57.7 µM)	15	–	12	50 (≈ 115 µM)	14	25 (≈ 57.7 µM)	100 (≈ 231 µM)
